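Each compound was tested at five concentrations against cells in 96-well plates for 48 hours. TGI is the concentration that stops growth completely.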
Legend:
Assay in all cases: NCI-60 cell line screen, 48 h
M14 melanoma = tested on: M14 melanoma
HCT-15 colon = tested on: HCT-15 colon
DLD-1 colon = tested on: DLD-1 colon
786-0 renal = tested on: 786-0 renal
OVCAR-3 ovarian = tested on: OVCAR-3 ovarian
SNB-78 CNS = tested on: SNB-78 CNS
MALME-3M melanoma = tested on: MALME-3M melanoma
XF 498 CNS = tested on: XF 498 CNS
UACC-257 melanoma = tested on: UACC-257 melanoma
HCT-116 colon = tested on: HCT-116 colon
LXFL 529 NSCLC = tested on: LXFL 529 NSCLC
MOLT-4 leukemia = tested on: MOLT-4 leukemia
KM12 colon = tested on: KM12 colon
HCC-2998 colon = tested on: HCC-2998 colon
DMS 273 small cell lung = tested on: DMS 273 small cell lung
NCI-H522 lung = tested on: NCI-H522 lung
IGROV1 ovarian = tested on: IGROV1 ovarian
SNB-75 CNS = tested on: SNB-75 CNS
KM20L2 colon = tested on: KM20L2 colon
HOP-92 NSCLC = tested on: HOP-92 NSCLC
A549 NSCLC = tested on: A549 NSCLC
LOX IMVI melanoma = tested on: LOX IMVI melanoma
SN12C renal = tested on: SN12C renal
UO-31 renal = tested on: UO-31 renal
SW-620 colon = tested on: SW-620 colon
SK-MEL-5 melanoma = tested on: SK-MEL-5 melanoma
NCI-H460 lung = tested on: NCI-H460 lung
SF-539 CNS = tested on: SF-539 CNS
SK-MEL-2 melanoma = tested on: SK-MEL-2 melanoma
EKVX NSCLC = tested on: EKVX NSCLC
NCI-H226 lung = tested on: NCI-H226 lung
TK-10 renal = tested on: TK-10 renal
SF-268 CNS = tested on: SF-268 CNS
U251 CNS = tested on: U251 CNS
OVCAR-8 ovarian = tested on: OVCAR-8 ovarian
SF-295 CNS = tested on: SF-295 CNS
K-562 leukemia = tested on: K-562 leukemia
RPMI-8226 leukemia = tested on: RPMI-8226 leukemia
CAKI-1 renal = tested on: CAKI-1 renal
OVCAR-4 ovarian = tested on: OVCAR-4 ovarian
SR leukemia = tested on: SR leukemia
DMS 114 small cell lung = tested on: DMS 114 small cell lung
ACHN renal = tested on: ACHN renal
M19-MEL melanoma = tested on: M19-MEL melanoma
COLO 205 colon = tested on: COLO 205 colon
UACC-62 melanoma = tested on: UACC-62 melanoma
OVCAR-5 ovarian = tested on: OVCAR-5 ovarian
HOP-18 NSCLC = tested on: HOP-18 NSCLC
SK-MEL-28 melanoma = tested on: SK-MEL-28 melanoma
RXF 393 renal = tested on: RXF 393 renal
NCI-H23 lung = tested on: NCI-H23 lung
CCRF-CEM leukemia = tested on: CCRF-CEM leukemia
HOP-62 NSCLC = tested on: HOP-62 NSCLC
SK-OV-3 ovarian = tested on: SK-OV-3 ovarian
A498 renal = tested on: A498 renal
HT29 colon = tested on: HT29 colon
SNB-19 CNS = tested on: SNB-19 CNS
HL-60(TB) leukemia = tested on: HL-60(TB) leukemia

## Cc1c(Cl)cccc1N1C(=O)C(Cl)=C(Cl)C1=O
M14 melanoma
  TGI: > 100 µM
HCT-15 colon
  TGI: > 100 µM
DLD-1 colon
  TGI: > 100 µM
786-0 renal
  TGI: > 100 µM
OVCAR-3 ovarian
  TGI: > 100 µM
SNB-78 CNS
  TGI: > 100 µM
MALME-3M melanoma
  TGI: > 100 µM
XF 498 CNS
  TGI: > 100 µM
UACC-257 melanoma
  TGI: > 100 µM
HCT-116 colon
  TGI: > 100 µM
LXFL 529 NSCLC
  TGI: > 100 µM
MOLT-4 leukemia
  TGI: 28.1 µM
KM12 colon
  TGI: > 100 µM
HCC-2998 colon
  TGI: > 100 µM
DMS 273 small cell lung
  TGI: > 100 µM
NCI-H522 lung
  TGI: 27.9 µM
IGROV1 ovarian
  TGI: > 100 µM
SNB-75 CNS
  TGI: > 100 µM
KM20L2 colon
  TGI: > 100 µM
HOP-92 NSCLC
  TGI: > 100 µM
A549 NSCLC
  TGI: > 100 µM
LOX IMVI melanoma
  TGI: > 100 µM
SN12C renal
  TGI: > 100 µM
UO-31 renal
  TGI: > 100 µM
SW-620 colon
  TGI: > 100 µM
SK-MEL-5 melanoma
  TGI: > 100 µM
NCI-H460 lung
  TGI: > 100 µM
SF-539 CNS
  TGI: > 100 µM
SK-MEL-2 melanoma
  TGI: > 100 µM
EKVX NSCLC
  TGI: > 100 µM
NCI-H226 lung
  TGI: > 100 µM
TK-10 renal
  TGI: > 100 µM
SF-268 CNS
  TGI: > 100 µM
U251 CNS
  TGI: > 100 µM
OVCAR-8 ovarian
  TGI: > 100 µM
SF-295 CNS
  TGI: > 100 µM
K-562 leukemia
  TGI: > 31.6 µM
RPMI-8226 leukemia
  TGI: > 89.8 µM
CAKI-1 renal
  TGI: > 80.9 µM
OVCAR-4 ovarian
  TGI: > 100 µM
SR leukemia
  TGI: 79.6 µM
DMS 114 small cell lung
  TGI: > 100 µM
ACHN renal
  TGI: > 100 µM
M19-MEL melanoma
  TGI: > 100 µM
COLO 205 colon
  TGI: > 100 µM
UACC-62 melanoma
  TGI: > 100 µM
OVCAR-5 ovarian
  TGI: > 100 µM
HOP-18 NSCLC
  TGI: > 100 µM
SK-MEL-28 melanoma
  TGI: > 100 µM
RXF 393 renal
  TGI: 97.2 µM
NCI-H23 lung
  TGI: > 100 µM
CCRF-CEM leukemia
  TGI: 27.8 µM
HOP-62 NSCLC
  TGI: > 100 µM
SK-OV-3 ovarian
  TGI: > 100 µM
A498 renal
  TGI: > 100 µM
HT29 colon
  TGI: > 100 µM
SNB-19 CNS
  TGI: > 100 µM

## CCc1c(OC(C)=O)c2c(NC3OC(COC(C)=O)C(OC(C)=O)C(OC(C)=O)C3OC(C)=O)nc(OC)nc2oc1=O (stereo not given)
M14 melanoma
  TGI: > 100 µM
HCT-15 colon
  TGI: > 100 µM
DLD-1 colon
  TGI: > 100 µM
786-0 renal
  TGI: > 100 µM
OVCAR-3 ovarian
  TGI: > 100 µM
SNB-78 CNS
  TGI: > 100 µM
MALME-3M melanoma
  TGI: > 100 µM
XF 498 CNS
  TGI: > 100 µM
UACC-257 melanoma
  TGI: > 100 µM
HCT-116 colon
  TGI: > 100 µM
LXFL 529 NSCLC
  TGI: > 100 µM
MOLT-4 leukemia
  TGI: > 100 µM
KM12 colon
  TGI: > 100 µM
HCC-2998 colon
  TGI: > 100 µM
DMS 273 small cell lung
  TGI: > 100 µM
IGROV1 ovarian
  TGI: > 100 µM
SNB-75 CNS
  TGI: > 100 µM
KM20L2 colon
  TGI: > 100 µM
A549 NSCLC
  TGI: > 100 µM
HL-60(TB) leukemia
  TGI: > 100 µM
LOX IMVI melanoma
  TGI: > 100 µM
SN12C renal
  TGI: > 100 µM
UO-31 renal
  TGI: > 100 µM
SW-620 colon
  TGI: > 100 µM
SK-MEL-5 melanoma
  TGI: > 100 µM
NCI-H460 lung
  TGI: > 100 µM
SF-539 CNS
  TGI: > 100 µM
SK-MEL-2 melanoma
  TGI: > 100 µM
EKVX NSCLC
  TGI: > 100 µM
NCI-H226 lung
  TGI: > 100 µM
TK-10 renal
  TGI: > 100 µM
U251 CNS
  TGI: > 100 µM
OVCAR-8 ovarian
  TGI: > 100 µM
SF-295 CNS
  TGI: > 100 µM
K-562 leukemia
  TGI: > 100 µM
RPMI-8226 leukemia
  TGI: > 100 µM
CAKI-1 renal
  TGI: > 100 µM
OVCAR-4 ovarian
  TGI: > 100 µM
DMS 114 small cell lung
  TGI: > 100 µM
ACHN renal
  TGI: > 100 µM
M19-MEL melanoma
  TGI: > 100 µM
COLO 205 colon
  TGI: > 100 µM
UACC-62 melanoma
  TGI: > 100 µM
OVCAR-5 ovarian
  TGI: > 100 µM
HOP-18 NSCLC
  TGI: > 100 µM
RXF 393 renal
  TGI: > 100 µM
NCI-H23 lung
  TGI: > 100 µM
CCRF-CEM leukemia
  TGI: > 100 µM
HOP-62 NSCLC
  TGI: > 100 µM
SK-OV-3 ovarian
  TGI: > 100 µM
A498 renal
  TGI: > 100 µM
HT29 colon
  TGI: > 100 µM
SNB-19 CNS
  TGI: > 100 µM

Source: PubChem BioAssay (NCI)
